Paper PMC8037161 (International Journal of Molecular Sciences, 2021)

Tests used:
pBR322 plasmid = experiment: Ethidium bromide assay, DNA-binding effect on plasmid pBR322; conditions: % fluorescence relative to controls
Source text: Fluorescence readings are reported as % fluorescence relative to the controls.

calf thymus DNA = experiment: Ethidium displacement assay, apparent binding constant, calf thymus DNA; conditions: apparent association constant, ± 0.2 × 10^5 M^−1
Procedure: (§1) The fluorescence of DNA solutions (calf thymus DNA, T4 coliphage DNA, poly(dA-dT)2 and poly(dG-dC)2 with the investigated compound (final concentrations 10, 50, 100 μM) was measured by fluorescence spectrophotometer Infinite M200 TECAN at room temperature according to the procedure described above. The determination of DNA-binding constants was described in previous articles. The apparent binding constant was calculated from KEtBr [EtBr] = Kapp [drug], where [drug] = the concentration of the tested compound at 50% reduction of fluorescence and KEtBr and [EtBr] are known. The results are reported as a percentage of fluorescence decreases in Table 1.

T4 coliphage DNA = experiment: Ethidium displacement assay, apparent binding constant, T4 coliphage DNA; conditions: apparent association constant, ± 0.2 × 10^5 M^−1
Source text: The values of binding constants in the range of 0.7–6.4 × 10^5 M^−1 for T4 coliphage DNA for derivatives 1–18 was evidence of their minor-groove selectivity, because the major groove of T4 coliphage DNA is blocked by a-glycosylation of the 5-(hydroxymethyl)cytidine residues. […] All of the compounds bound to AT-rich sequences weaker than netropsin but some of them bound stronger to GC-rich sequences, e.g., compounds 3, 6, and 10.
as §1

poly(dA-dT)2 = experiment: Ethidium displacement assay, apparent binding constant, poly(dA-dT)2; conditions: apparent association constant, ± 0.2 × 10^5 M^−1
Procedure: as §1

poly(dG-dC)2 = experiment: Ethidium displacement assay, apparent binding constant, poly(dG-dC)2; conditions: apparent association constant, ± 0.2 × 10^5 M^−1
Procedure: as §1

recombinant human DHFR = biological target: T1, recombinant human DHFR (Homo sapiens, UniProt P00374); experiment: Dihydrofolate reductase (DHFR) inhibition assay; type: biochemical; conditions: assay kit
T1 construct: purchased
T1 sequence (P00374 1-187): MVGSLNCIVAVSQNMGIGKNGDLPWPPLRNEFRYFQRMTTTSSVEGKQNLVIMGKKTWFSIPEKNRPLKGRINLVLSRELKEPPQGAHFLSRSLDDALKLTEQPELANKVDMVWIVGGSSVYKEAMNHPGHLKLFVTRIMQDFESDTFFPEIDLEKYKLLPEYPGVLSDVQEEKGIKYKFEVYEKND

[1] = test system: poly(dA-dT)2 (DNA, polymer) AT; experiment: ethidium bromide displacement, fluorescence; conditions: apparent; room temperature; ethidium bromide displaced; compound 10, 50, 100 µM
[2] = test system: poly(dG-dC)2 (DNA, polymer) GC; experiment: ethidium bromide displacement, fluorescence; conditions: apparent; room temperature; ethidium bromide displaced; compound 10, 50, 100 µM

Row | Structure (SMILES) | Decrease of Fluorescence (pBR322 plasmid) | Kapp Calf Thymus DNA (calf thymus DNA) | Kapp T4 DNA (T4 coliphage DNA) | Kapp Poly (dA-dT)2 (poly(dA-dT)2) | Kapp poly (dG-dC)2 (poly(dG-dC)2) | IC50 (recombinant human DHFR) | Kapp [1] | Kapp [2]
1 | COc1cc(C(=O)Nc2ccc(N)c(I)c2)cc(OC)c1OC [Compound 1] | 74.54% | 300000 M⁻¹ | 160000 M⁻¹ | 310000 M⁻¹ | 360000 M⁻¹ | 21.89 ± 0.03 µM | 3.1 ± 0.2 × 10^5 M^−1 | 3.6 ± 0.2 × 10^5 M^−1
2 | COc1cc(C(=O)Nc2ccc(F)c(N)c2)cc(OC)c1OC [Compound 2] | 52.89% | 260000 M⁻¹ | 260000 M⁻¹ | 190000 M⁻¹ | 300000 M⁻¹ | 1.11 ± 0.02 µM | 1.9 ± 0.2 × 10^5 M^−1 | 3.0 ± 0.2 × 10^5 M^−1
3 | COc1cc(C(=O)Nc2cc(N)ccc2F)cc(OC)c1OC [Compound 3] | 68.85% | 170000 M⁻¹ | 410000 M⁻¹ | 430000 M⁻¹ | 530000 M⁻¹ | 10.13 ± 0.09 µM | 4.3 ± 0.2 × 10^5 M^−1 | 5.3 ± 0.2 × 10^5 M^−1
4 | COc1cc(C(=O)Nc2ccc(N)c(Cl)c2)cc(OC)c1OC [Compound 4] | 87.99% | 230000 M⁻¹ | 230000 M⁻¹ | 210000 M⁻¹ | 130000 M⁻¹ | 5.02 ± 0.03 µM | 2.1 ± 0.2 × 10^5 M^−1 | 1.3 ± 0.2 × 10^5 M^−1
5 | COc1cc(C(=O)Nc2cc(N)ccc2Cl)cc(OC)c1OC [Compound 5] | 72.56% | 270000 M⁻¹ | 100000 M⁻¹ | 130000 M⁻¹ | 230000 M⁻¹ | 30.02 ± 0.02 µM | 1.3 ± 0.2 × 10^5 M^−1 | 2.3 ± 0.2 × 10^5 M^−1
6 | COc1cc(C(=O)Nc2ccc(N)nc2)cc(OC)c1OC [Compound 6] | 50.44% | 400000 M⁻¹ | 130000 M⁻¹ | 250000 M⁻¹ | 480000 M⁻¹ | 0.99 ± 0.01 µM | 2.5 ± 0.2 × 10^5 M^−1 | 4.8 ± 0.2 × 10^5 M^−1
7 | COc1cc(OC)cc(C(=O)Nc2ccc(N)nc2)c1 [Compound 7] | 66.89% | 410000 M⁻¹ | 210000 M⁻¹ | 340000 M⁻¹ | 230000 M⁻¹ | 3.02 ± 0.09 µM | 3.4 ± 0.2 × 10^5 M^−1 | 2.3 ± 0.2 × 10^5 M^−1
8 | COc1ccc(C(=O)Nc2ccc(N)nc2)cc1OC [Compound 8] | 56.58% | 250000 M⁻¹ | 240000 M⁻¹ | 310000 M⁻¹ | 350000 M⁻¹ | 10.59 ± 0.06 µM | 3.1 ± 0.2 × 10^5 M^−1 | 3.5 ± 0.2 × 10^5 M^−1
9 | COc1cccc(C(=O)Nc2ccc(N)nc2)c1 [Compound 9] | 64.89% | 390000 M⁻¹ | 120000 M⁻¹ | 390000 M⁻¹ | 150000 M⁻¹ | 56.05 ± 0.08 µM | 3.9 ± 0.2 × 10^5 M^−1 | 1.5 ± 0.2 × 10^5 M^−1
10 | CN(Cc1cnc2nc(N)nc(N)c2n1)c1ccc(C(=O)N[C@@H](CCC(=O)O)C(=O)O)cc1 [MTX, methotrexate, reference compound] | 100% |  |  |  |  |  |  | 
11 | COc1cc(Cc2cnc(N)nc2N)cc(OC)c1OC [TMP, 2,4-diamino-5-(3,4,5-trimethoxybenzyl) pyrimidine, reference compound] | 100% |  |  |  |  |  |  | 
